Results from US20050142160A1, “ACTIVE ATTRACTANT COMPOSITION FOR INSECTS” (priority 2003, published 2005).

How the values were obtained:
flies = assay: Comparison of muscalure against other fly attractants; format: in vivo; details: compared against other fly attractants; no method given
[1] = test system: houseflies (musca domestica); assay: Test-room trap choice experiment, attractants compared with the standard (% of total flies caught); format: in vivo; details: for % Catch: Table 3, TMA/Z-9 and the combination; for attractiveness to flies (in words): attractant judged by itself or against a named alternative; for effect on the attractancy of the standard TMA/Z-9 when combined (in words): in combination with trimethylamine and Z-9-tricosene
Protocol: The trimethylamine (TMA) solution was prepared freshly for each experiment by dissolving a known amount of trimethylamine in a solution of sodium bicarbonate in water, to make 6 milliliters total volume. […] Additional attractants were placed in a third jar lid, or otherwise dispersed separately in the lower compartment of the test traps, for comparison against the standard. A testing room approximately 10 feet by 15 feet was furnished with folding tables on which to place the traps. In such a room was placed a total of six traps, two each of the control, the new attractant, and a combination of control+new attractant. Flies were raised from fly pupae, purchased from Beneficial […], California in a separate room under controlled conditions. For each experiment, after setting up the test traps, around 200 flies were introduced into the room for an 18-24 hour period, and observations were made periodically. At the end of each experiment, flies were counted in each trap, and the remaining flies not trapped were counted in order to account for all flies. In most cases, the remaining flies not caught had expired and were found on the floor of the testing suite. The data are reported for each trap as the percentage of the total flies caught, ignoring the flies not caught. It was observed that a percentage of the initially released flies were always weaker than the main population, and would quickly move toward the floor. Thus, only healthy, active flies were caught, since they were still foraging and seeking mating partners. The experiments were repeated daily, randomly rotating the relative positions of traps in the room with respect to their contents, such that positional effects in the room would be averaged out over many repetitions of the experiment. The results of each experiment, one per day, over one to two weeks, were totaled, and the total catch per attractant type were reported as percentage of catch (% catch).

Compound: CCCCCCCC/C=C\CCCCCCCCCCCCC [muscalure, Z-9-tricosene]
- attractiveness to flies (in words) (flies): weak fly attractant

Compound: C=CC(O)CCCCC (stereo not drawn) [Attractant 1-octen-3-ol, 1-octen-3-ol]
- % Catch ([1]; choice between 1-octen-3-ol): 0%
- attractiveness to flies (in words) [1]: non-attractive or repellent to flies
- effect on the attractancy of the standard TMA/Z-9 when combined (in words) [1]: lowered the overall relative catch

Compound: CCO [Ethanol]
- % Catch ([1]; choice between ethanol): 7%
- attractiveness to flies (in words) [1]: weak attractant
- effect on the attractancy of the standard TMA/Z-9 when combined (in words) [1]: no statistically significant effect on the attractancy of the standard

Compound: Z-9-epoxytricosene [Attractant Z-9-Epoxy]
- attractiveness to flies (in words) [1]: no more attractive than Z-9-tricosene

Compound: CC(=O)O [Acetic Acid, Acetic acid]
- % Catch ([1]; choice between acetic acid): 7%
- attractiveness to flies (in words) [1]: weak attractant
- effect on the attractancy of the standard TMA/Z-9 when combined (in words) [1]: no effect on the attractancy of TMA/Z-9

Compound: CCCC(=O)O [butyric acid]
- effect on the attractancy of the standard TMA/Z-9 when combined (in words) [1]: increases the attractiveness of the attractant combination
